Results: US4946779A, “Pseudo-aminosugars, their production and use” (Takeda Chemical Industries, Ltd., priority 1981, dated 1990)

Tests used:
rats = test: Toxicity, LD50 in rats; type: in vivo
[1] = target: maltase prepared from porcine intestinal mucosa; test: maltase inhibitory activity, maltose as substrate; type: biochemical; settings: substrate 0.05 M maltose, read-out: IC50 (M), concentration of 50% inhibition
Procedure: (§1) The inhibitory activities of the compounds of this invention against α-glucosidase (yeast, type I, produced by Sigma Chemical Co.,U.S.A.)as well as maltase and saccharase prepared from porcine intestinal mucosa (prepared in accordance with the procedure as described by B. Borgstroom and A. Dahlgvist in Acta Chem. Scand.; 12, 1997-2006, (1958)), when maltose and sucrose are used as a substrate, are determined by adding to 0.25 ml of a solution of an enzyme prepared by diluting suitably with 0.02 M phosphate buffer (pH 6.8) 0.5 ml of a solution of an inhibitory substance to be tested in the same buffer and 0.25 ml of 0.05 M maltose or 0.05 M sucrose as the substrate in the same buffer allowing the mixture to react at 37° C. for 10 minutes, then adding 3 ml of Glucose B-Test Reagent (a glucose oxidase reagent for measurement of glucose, produced by Wako Pure Chemical Co., Japan), further warming the mixture at 37° C. for 20 minutes and measuring the absorbance of the reaction solution at 505 nm.

Solubility in solvents = type: physicochemical
[2] = target: T1, saccharase prepared from porcine intestinal mucosa (Sus scrofa, UniProt P56729); test: saccharase inhibitory activity, sucrose as substrate; type: biochemical; settings: substrate 0.05 M sucrose, read-out: IC50 (M), concentration of 50% inhibition
T1 construct: sucrase is the C-terminal subunit cleaved from the SI precursor, paired with isomaltase
Procedure: as §1

[3] = in ethanol, ethyl acetate, chloroform, acetone
[4] = in water, dimethylsulfoxide, methanol

T1 sequence (P56729 with tags, fused parts or gaps): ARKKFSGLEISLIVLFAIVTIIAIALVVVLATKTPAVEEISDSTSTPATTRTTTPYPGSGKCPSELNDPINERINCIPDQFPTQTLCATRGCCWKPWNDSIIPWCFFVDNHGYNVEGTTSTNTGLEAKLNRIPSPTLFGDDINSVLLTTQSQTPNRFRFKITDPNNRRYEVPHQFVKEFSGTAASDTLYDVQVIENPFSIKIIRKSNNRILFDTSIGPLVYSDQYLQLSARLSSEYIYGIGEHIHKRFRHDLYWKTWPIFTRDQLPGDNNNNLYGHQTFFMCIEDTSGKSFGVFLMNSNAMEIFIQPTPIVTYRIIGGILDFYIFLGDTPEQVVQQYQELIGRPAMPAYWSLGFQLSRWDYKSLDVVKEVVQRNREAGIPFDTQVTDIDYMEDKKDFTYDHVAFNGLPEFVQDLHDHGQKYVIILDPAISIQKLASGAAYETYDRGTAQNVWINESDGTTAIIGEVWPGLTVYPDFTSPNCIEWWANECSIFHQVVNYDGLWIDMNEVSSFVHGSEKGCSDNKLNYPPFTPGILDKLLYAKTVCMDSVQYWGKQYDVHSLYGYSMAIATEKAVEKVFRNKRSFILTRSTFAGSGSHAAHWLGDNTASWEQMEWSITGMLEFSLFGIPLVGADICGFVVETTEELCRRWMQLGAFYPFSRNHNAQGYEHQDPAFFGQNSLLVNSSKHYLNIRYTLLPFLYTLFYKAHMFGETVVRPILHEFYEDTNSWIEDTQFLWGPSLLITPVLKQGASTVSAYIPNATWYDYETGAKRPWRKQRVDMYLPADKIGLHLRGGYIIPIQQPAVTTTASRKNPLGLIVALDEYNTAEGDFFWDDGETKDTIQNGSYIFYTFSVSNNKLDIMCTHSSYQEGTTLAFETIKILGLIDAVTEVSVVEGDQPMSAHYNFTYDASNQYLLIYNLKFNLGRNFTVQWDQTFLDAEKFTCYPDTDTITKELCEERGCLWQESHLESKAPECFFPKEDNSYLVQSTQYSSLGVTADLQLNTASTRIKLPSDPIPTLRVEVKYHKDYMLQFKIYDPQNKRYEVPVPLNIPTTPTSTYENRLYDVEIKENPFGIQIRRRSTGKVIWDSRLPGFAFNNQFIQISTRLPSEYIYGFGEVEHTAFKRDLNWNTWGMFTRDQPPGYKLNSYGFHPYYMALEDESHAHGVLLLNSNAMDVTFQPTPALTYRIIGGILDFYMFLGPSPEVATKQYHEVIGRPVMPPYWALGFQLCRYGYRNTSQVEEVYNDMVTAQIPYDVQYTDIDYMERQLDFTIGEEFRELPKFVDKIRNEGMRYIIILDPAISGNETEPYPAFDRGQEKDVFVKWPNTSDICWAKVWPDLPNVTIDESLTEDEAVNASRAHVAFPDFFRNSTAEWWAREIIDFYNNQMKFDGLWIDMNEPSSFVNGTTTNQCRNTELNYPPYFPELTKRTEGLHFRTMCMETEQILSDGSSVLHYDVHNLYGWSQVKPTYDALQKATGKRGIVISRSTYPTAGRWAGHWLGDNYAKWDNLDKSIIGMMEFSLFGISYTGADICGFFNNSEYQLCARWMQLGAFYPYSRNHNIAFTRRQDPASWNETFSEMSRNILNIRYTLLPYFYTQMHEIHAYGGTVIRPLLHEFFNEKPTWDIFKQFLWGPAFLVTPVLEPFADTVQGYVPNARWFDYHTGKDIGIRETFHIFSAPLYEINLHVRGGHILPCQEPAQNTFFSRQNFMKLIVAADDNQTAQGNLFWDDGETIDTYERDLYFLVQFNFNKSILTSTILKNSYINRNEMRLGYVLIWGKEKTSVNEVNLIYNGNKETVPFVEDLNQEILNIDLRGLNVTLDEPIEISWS

SMILES	LD50 (rats) [mg]	IC50 [1] [M]	Solubility (Solubility in solvents; [3])	Solubility (Solubility in solvents; [4])	IC50 [2] [M]
NC1CC(O)(CO)C(O)C(O)C1O (centres unmarked) [compound [I], 5-amino-1-hydroxymethyl-1,2,3,4-cyclohexanetetrol]	≥ 500	–	–	–	–
N[C@H]1C[C@](O)(CO)C(O)C(O)C1O (some centres unmarked) [epivaliolamine]	–	0.00014	Sparing soluble or insoluble	Soluble	–
N[C@H]1C[C@](O)(CO)[C@@H](O)[C@H](O)[C@H]1O [valiolamine, 1L(1S)-(1(OH), 2,4,5/1(CH2 OH),3)-5-amino-1-hydroxymethyl-1,2,3,4-cyclohexanetetrol]	–	2.2e-06	Sparingly soluble or insoluble	Soluble	4.9e-08
